Laboratory results from patent US20230146395A1, “Substituted Pyrimidines and Uses Thereof” (Verge Analytics, Inc., priority 2020, published 2023).

Columns and labels:
PI3Kδ = molecular target: T1, PI3Kδ (Homo sapiens, UniProt O00329); experiment: Inhibition of PI3K isoforms: PI3Kδ (microfluidic electrophoresis kinase assay, PIP2/PS substrate); type: biochemical; details: p110δ/p85α, ATP 90 μM; read-out: PI3Kd IC50
T1 construct: Full-length N-terminal; GST (N); host or cells: SF9 cells (baculovirus)
Description: The kinase substrate was prepared by mixing and sonicating fluorescently-labeled phosphatidylinositol 4,5-phosphate (PIP2) with phospho-L-[…]:20 ratio in 50 mM HEPES buffer pH7.5. The kinase reactions were assembled in 384-well plates (Greiner) in a total volume of […] as follows. The kinase proteins were pre-diluted in an assay buffer comprising 50 mM HEPES, pH 7.5, 0.012% CHAPS, 1 mM DTT, 10 mM Na3VaO4, 10 mM 3-GP, 3 mM MgCl2, and 40 mM NaCl2, and dispensed into a 384-well plate (10 μL per well). Test compounds were serially pre-diluted in DMSO and added to the protein samples by acoustic dispensing (Labcyte Echo). The concentration of DMSO was equalized to 1% in all samples. All test compounds were tested at 12 concentrations. The control samples (0%-inhibition in the absence of inhibitor, DMSO only) and 100%-inhibition (in the absence of enzyme) were assembled in replicates of four and were used to calculate %-inhibition in the presence of test compounds. The reactions were initiated by addition of 10 μL of the PIP2/PS substrate supplemented with ATP. The final concentration of enzymes was 0.5 nM (PI3Kα), 1 nM (PI3Kβ), 10 nM (PI3Kγ), and 0.25 nM (PI3Kδ). The final concentration of ATP was 90 μM (PI3Kα), 60 μM (PI3Kβ), 100 μM (PI3Kγ), and 90 μM (PI3Kδ). The final concentration of PIP2/PS substrate was 1 μM (PIP2). The kinase reactions were allowed to proceed for 3 h at room temperature. Following incubation, the reactions were quenched by addition of 50 μL of termination buffer (100 mM HEPES, pH 7.5, 0.01% Triton X-100, 20 mM EDTA). Terminated plates were analyzed on a microfluidic electrophoresis instrument (Caliper LabChip® 3000, Caliper Life Sciences/Perkin Elmer). The change in the relative fluorescence intensity of the PI(4,5)P substrate and PI(3,4,5)P product peaks was measured. The activity in each test sample was determined as the product to sum ratio (PSR): P/(S+P), where P is the peak height of the product, and S is the peak height of the substrate. Percent inhibition (Pinh) was determined using the following equation: Pinh=(PSR0% inh-PSRcompound)/(PSR0% inh-PSR100% inh)*100 in which PSRcompound is the product/sum ratio in the presence of compound, PSR0% inh is the product/sum ratio in the absence of compound, and the PSR100% inh is the product/sum ratio in the absence of the enzyme. […] (Pinh versus compound concentration) were fitted by a four-parameter sigmoid dose-response model using XLfit software (IDBS).

PI3Kα = molecular target: T2, PI3Kα (Homo sapiens, UniProt P42336); experiment: Inhibition of PI3K isoforms: PI3Kα (microfluidic electrophoresis kinase assay, PIP2/PS substrate); type: biochemical; details: p110α/p85α, ATP 90 μM; read-out: PI3Ka IC50
T2 construct: Full-length N-terminal; FLAG (N); host or cells: SF9 cells (baculovirus)
Description: The kinase substrate was prepared by mixing and sonicating fluorescently-labeled phosphatidylinositol 4,5-phosphate (PIP2) with phospho-L-serine (PS) at 1:20 ratio in 50 mM HEPES buffer pH7.5.
The kinase reactions were assembled in 384-well plates (Greiner) in a total volume of […] as follows. The kinase proteins were pre-diluted in an assay buffer comprising 50 mM HEPES, pH 7.5, 0.012% CHAPS, 1 mM DTT, 10 mM Na3VaO4, 10 mM 3-GP, 3 mM MgCl2, and 40 mM NaCl2, and dispensed into a 384-well plate (10 μL per well). Test compounds were serially pre-diluted in DMSO and added to the protein samples by acoustic dispensing (Labcyte Echo). The concentration of DMSO was equalized to 1% in all samples. All test compounds were tested at 12 concentrations. The control samples (0%-inhibition in the absence of inhibitor, DMSO only) and 100%-inhibition (in the absence of enzyme) were assembled in replicates of four and were used to calculate %-inhibition in the presence of test compounds. The reactions were initiated by addition of 10 μL of the PIP2/PS substrate supplemented with ATP. The final concentration of enzymes was 0.5 nM (PI3Kα), 1 nM (PI3Kβ), 10 nM (PI3Kγ), and 0.25 nM (PI3Kδ). The final concentration of ATP was 90 μM (PI3Kα), 60 μM (PI3Kβ), 100 μM (PI3Kγ), and 90 μM (PI3Kδ). The final concentration of PIP2/PS substrate was 1 μM (PIP2). The kinase reactions were allowed to proceed for 3 h at room temperature. Following incubation, the reactions were quenched by addition of 50 μL of termination buffer (100 mM HEPES, pH 7.5, 0.01% Triton X-100, 20 mM EDTA). Terminated plates were analyzed on a microfluidic electrophoresis instrument (Caliper LabChip® 3000, Caliper Life Sciences/Perkin Elmer). The change in the relative fluorescence intensity of the PI(4,5)P substrate and PI(3,4,5)P product peaks was measured. The activity in each test sample was determined as the product to sum ratio (PSR): P/(S+P), where P is the peak height of the product, and S is the peak height of the substrate. Percent inhibition (Pinh) was determined using the following equation:
Pinh=(PSR0% inh−PSRcompound)/(PSR0% inh−PSR100% inh)*100
in which PSRcompound is the product/sum ratio in the presence of compound, PSR0% inh is the product/sum ratio in the absence of compound, and the PSR100% inh is the product/sum ratio in the absence of the enzyme.

[1] = molecular target: T3, Full length human recombinant PIKFYVE (Homo sapiens, UniProt Q9Y2I7); experiment: Inhibition of PIKfyve (microfluidic electrophoresis kinase assay, PI3P/PS substrate); type: biochemical; details: 12 concentrations
T3 construct: Full length human recombinant PIKFYVE; purchased Carna Biosciences (Kobe, Japan); host or cells: baculovirus expression system
Outline: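 GST-tagged full-length human PIKFYVE (baculovirus; 2 nM) with fluorescent PI3P/PS (1 μM PI3P) and […] in pH 7.5 HEPES with Mg2+/Mn2+, 1% DMSO, 3 h at room temperature. PI(3,5)P product/substrate ratio read by microfluidic electrophoresis; 12-point % inhibition versus no-enzyme and DMSO controls.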

[2] = system: ALS patient (SOD1 A4V) iPSC derived motor neurons; experiment: iPSC MN Survival assay (GFP imaging, six days, hazard ratio from Cox regression); type: cell-based; details: Homo sapiens, survival rescue, read-out: C9 iPSC MN Significant survival rescue EC50
[3] = system: HEK 293T transfected with plasmids containing TDP-43 Q331K mutation; experiment: HEK/TDP Survival assay (Cell-Titer-Glo, 48 hrs, maximal effect of rescue); type: cell-based; details: Homo sapiens, HEK 293T with TDP-43 Q331K, (n) in brackets
Description: HEK/TDP Survival assay: Immortalized human embryonic kidney 293T (HEK 293T) were transfected with plasmids containing TDP-43 Q331K mutation, resulting in an increase in cell death that is biologically relevant to ALS patients. Cell death is measured as reductions in the amount of ATP, an indicator of metabolically active cells, that is quantified by a luminescence Cell-Titer-Glo® (CTG) reagent. Compounds are evaluated in this model for changes in CTG compared to a no treatment group. Increased signal indicates improved survival (rescue) and decreased signal indicates decreased survival.
Cell rescue was measured in a 96-well format with eight different concentrations of the test compound over 48 hours (hrs) with 6 replicates. The Promega Cell-Titer-Glo® Luminescent Cell Viability Assay was used to quantify ATP, an indicator of metabolically active cells (see protocol: https://www.promega.com/-/media/files/resources/protocols/technical-manuals/101/celltiterglo-2-0-assay-protocol.pdf?la=en). The luminescence signal was detected using the PerkinElmer EnVision or Molecular Devices SpectraMax.
The effect of a compound at a given dose on cell viability was determined using a three step procedure. First, Hedge's g for the Cell Titer-Glo luminescence values using six untreated wells on every plate as a control was calculated. […] Finally, values from all compound-dose pairs were corrected for multiple hypothesis testing using the Empirical Bayes framework of Stephens, M. (False discovery rates: a new deal, Biostatistics, 18 [2], 2017, 275-294) yielding credible intervals for the measured effect and associated s values.
Briefly, this method computes a local false sign rate for each experiment. Analogous to the local false discovery rate of Efron, B. (Size, power and false discovery rates, Ann. Statist. 35 [4], 2007, 1351-1377) this value measures the confidence in the sign of each effect (rather than confidence in each effect being non-zero). The s values reported in the previous figures are the expected fraction of errors if estimating the sign of all effects with greater absolute local false sign rate, defined in analogy to the q value of Storey, JD (The positive false discovery rate: a Bayesian interpretation and the q-value, Ann. Statist. 31 [6] 2003, 2013-2035).
Drugs that yielded signed log s values greater than 3 were considered hits. This threshold was determined by a separate calibration experiment in which Cell Titer-Glo® was measured in blank plates consisting of untreated cells to assess the noise inherent in the assay. Data are presented as the maximal effect of rescue obtained from the dose-response curve.

T3 sequence (Q9Y2I7 whole entry): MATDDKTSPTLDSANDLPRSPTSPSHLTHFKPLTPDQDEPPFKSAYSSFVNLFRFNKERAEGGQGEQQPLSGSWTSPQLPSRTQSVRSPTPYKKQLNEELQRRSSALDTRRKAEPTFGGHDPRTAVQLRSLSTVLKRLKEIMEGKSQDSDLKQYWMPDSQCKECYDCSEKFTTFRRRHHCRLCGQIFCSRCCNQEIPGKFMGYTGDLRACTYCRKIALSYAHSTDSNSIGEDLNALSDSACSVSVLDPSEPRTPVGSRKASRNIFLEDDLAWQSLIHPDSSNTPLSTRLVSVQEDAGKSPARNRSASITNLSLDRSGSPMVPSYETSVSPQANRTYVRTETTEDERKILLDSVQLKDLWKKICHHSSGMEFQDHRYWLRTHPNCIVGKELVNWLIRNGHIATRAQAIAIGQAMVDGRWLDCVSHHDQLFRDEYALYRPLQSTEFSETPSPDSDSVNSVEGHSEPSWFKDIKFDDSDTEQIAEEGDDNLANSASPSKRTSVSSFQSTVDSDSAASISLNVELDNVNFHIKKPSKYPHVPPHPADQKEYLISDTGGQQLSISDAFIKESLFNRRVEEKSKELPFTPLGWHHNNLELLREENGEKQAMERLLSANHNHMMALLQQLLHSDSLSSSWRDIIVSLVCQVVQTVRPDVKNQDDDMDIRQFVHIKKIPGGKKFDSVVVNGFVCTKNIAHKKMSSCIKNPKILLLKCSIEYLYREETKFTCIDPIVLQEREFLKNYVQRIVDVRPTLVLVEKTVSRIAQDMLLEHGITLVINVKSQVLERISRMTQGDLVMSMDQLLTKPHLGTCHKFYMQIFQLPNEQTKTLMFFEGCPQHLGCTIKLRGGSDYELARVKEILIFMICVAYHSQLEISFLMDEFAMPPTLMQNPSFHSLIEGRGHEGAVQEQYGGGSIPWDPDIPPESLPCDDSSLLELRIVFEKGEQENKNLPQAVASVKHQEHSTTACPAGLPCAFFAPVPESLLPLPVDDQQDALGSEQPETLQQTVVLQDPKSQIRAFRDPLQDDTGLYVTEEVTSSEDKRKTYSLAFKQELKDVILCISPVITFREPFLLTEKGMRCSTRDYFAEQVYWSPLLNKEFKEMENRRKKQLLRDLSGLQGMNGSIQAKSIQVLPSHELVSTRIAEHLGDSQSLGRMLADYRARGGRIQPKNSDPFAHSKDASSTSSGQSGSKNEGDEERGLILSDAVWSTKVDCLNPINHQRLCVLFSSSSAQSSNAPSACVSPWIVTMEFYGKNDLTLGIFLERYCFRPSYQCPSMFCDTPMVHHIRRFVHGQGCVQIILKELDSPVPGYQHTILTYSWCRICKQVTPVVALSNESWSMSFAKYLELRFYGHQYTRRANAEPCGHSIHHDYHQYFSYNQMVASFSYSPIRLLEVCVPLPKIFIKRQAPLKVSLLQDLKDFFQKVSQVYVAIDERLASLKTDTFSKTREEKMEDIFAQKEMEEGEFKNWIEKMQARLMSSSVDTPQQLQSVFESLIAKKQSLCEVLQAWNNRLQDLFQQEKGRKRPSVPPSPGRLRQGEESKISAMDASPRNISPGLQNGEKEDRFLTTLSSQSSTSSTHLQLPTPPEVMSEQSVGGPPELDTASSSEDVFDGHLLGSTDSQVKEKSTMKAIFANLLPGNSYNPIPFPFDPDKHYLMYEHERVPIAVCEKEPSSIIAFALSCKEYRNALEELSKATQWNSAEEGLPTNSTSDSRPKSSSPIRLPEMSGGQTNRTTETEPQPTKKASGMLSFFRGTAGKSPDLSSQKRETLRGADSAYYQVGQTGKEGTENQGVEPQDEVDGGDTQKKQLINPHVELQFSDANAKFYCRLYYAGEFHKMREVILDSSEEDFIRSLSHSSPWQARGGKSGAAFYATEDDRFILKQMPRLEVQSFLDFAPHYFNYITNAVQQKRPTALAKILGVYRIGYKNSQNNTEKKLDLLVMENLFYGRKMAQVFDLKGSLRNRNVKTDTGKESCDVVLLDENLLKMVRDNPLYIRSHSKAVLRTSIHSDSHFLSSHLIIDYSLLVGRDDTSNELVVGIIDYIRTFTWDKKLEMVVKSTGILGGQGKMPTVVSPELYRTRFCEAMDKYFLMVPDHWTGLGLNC
T1 sequence (O00329 whole entry, canonical isoform): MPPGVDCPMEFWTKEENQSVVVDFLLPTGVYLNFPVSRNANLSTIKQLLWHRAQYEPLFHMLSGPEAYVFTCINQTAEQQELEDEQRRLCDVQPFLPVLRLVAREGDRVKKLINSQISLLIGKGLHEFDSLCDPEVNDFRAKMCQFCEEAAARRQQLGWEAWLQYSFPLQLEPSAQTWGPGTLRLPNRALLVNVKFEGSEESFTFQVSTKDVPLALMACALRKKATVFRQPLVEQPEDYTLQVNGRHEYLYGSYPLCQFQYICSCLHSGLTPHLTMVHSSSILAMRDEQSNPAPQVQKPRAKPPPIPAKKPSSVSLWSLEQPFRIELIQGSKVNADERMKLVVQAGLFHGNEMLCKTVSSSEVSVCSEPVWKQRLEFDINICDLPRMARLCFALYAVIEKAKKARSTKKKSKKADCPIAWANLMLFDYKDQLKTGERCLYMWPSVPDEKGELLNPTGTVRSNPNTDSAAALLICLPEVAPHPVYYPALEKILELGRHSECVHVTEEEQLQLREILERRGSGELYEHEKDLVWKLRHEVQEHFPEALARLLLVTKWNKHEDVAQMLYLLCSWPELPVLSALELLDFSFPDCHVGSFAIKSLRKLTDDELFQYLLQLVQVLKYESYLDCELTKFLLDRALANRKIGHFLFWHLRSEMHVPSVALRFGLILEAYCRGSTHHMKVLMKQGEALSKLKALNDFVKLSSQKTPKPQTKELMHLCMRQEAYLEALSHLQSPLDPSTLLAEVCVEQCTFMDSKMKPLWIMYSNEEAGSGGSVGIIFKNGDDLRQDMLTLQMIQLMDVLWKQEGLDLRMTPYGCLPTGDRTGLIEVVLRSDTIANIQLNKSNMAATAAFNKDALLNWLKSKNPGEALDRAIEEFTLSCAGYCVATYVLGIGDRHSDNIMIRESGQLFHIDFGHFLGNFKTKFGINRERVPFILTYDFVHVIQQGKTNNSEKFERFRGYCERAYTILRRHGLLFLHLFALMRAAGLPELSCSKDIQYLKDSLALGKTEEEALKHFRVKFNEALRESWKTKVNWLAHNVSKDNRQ
T1 sequence (P27986 whole entry partner, canonical isoform): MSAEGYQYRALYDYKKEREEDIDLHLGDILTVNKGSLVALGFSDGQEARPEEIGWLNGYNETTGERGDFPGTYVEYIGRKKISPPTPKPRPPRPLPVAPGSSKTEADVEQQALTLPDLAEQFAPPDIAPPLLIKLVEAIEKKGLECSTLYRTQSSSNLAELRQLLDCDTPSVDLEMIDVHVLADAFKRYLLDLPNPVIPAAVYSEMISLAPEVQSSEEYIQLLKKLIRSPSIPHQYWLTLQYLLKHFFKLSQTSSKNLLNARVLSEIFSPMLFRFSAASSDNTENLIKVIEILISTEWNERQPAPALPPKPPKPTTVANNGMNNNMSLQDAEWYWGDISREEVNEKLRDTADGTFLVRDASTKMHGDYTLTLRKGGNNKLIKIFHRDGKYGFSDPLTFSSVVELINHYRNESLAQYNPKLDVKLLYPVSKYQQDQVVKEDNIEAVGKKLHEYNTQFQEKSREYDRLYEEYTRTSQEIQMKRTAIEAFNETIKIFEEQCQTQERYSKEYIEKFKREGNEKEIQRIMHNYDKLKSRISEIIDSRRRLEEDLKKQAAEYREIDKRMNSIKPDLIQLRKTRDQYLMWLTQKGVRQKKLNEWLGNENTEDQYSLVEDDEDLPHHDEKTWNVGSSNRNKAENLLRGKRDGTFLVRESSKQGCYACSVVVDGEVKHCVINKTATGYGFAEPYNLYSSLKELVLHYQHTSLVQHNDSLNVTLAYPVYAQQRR
T2 sequence (P42336 whole entry, canonical isoform): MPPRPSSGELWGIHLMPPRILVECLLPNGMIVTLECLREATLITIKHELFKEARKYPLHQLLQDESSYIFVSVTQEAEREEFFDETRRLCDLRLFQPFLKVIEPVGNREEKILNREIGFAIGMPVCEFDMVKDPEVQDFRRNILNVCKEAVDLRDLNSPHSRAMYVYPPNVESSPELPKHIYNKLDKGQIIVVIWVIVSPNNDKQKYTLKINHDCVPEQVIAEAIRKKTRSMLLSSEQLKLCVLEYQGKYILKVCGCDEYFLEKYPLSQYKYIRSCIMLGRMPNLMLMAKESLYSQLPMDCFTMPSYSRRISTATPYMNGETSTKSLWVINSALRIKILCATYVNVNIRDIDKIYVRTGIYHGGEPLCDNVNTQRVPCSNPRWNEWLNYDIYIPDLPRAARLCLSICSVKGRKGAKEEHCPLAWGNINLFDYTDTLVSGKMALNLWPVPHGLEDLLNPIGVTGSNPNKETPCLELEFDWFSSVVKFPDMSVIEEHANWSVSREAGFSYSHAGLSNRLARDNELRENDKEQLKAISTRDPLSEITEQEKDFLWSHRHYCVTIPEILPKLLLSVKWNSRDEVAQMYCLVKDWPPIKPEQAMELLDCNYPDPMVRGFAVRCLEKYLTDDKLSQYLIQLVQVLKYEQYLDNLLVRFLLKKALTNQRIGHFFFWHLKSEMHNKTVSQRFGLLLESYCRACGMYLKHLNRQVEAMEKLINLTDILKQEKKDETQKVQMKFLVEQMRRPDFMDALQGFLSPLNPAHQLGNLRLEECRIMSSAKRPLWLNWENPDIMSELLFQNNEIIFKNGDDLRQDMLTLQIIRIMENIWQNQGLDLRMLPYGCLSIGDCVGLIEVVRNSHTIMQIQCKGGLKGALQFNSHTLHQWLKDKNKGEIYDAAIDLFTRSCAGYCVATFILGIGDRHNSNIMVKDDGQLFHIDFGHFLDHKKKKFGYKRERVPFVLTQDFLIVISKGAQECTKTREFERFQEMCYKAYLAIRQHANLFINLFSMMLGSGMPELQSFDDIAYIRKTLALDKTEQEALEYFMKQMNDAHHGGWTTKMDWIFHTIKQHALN
T2 sequence (P27986 whole entry partner, canonical isoform): as the sequence (P27986 whole entry partner, canonical isoform) above

| SMILES | IC50 (PI3Kδ) [nM] | IC50 (PI3Kα) [nM] | IC50 [1] [nM] | EC50 [2] [nM] | EC50 [3] [nM] |
| --- | --- | --- | --- | --- | --- |
| c1cc(-c2cc3nc(Nc4cc(C5CCC5)n[nH]4)nc(N4CCOCC4)c3o2)ccn1 [Compound 70, N-(5-cyclobutyl-1H-pyrazol-3-yl)-4-morpholino-6-(pyridin-4-yl)furo[3,2-d]pyrimidin-2-amine, hydrogen chloride] | 164 | 4140 | 142 |  |  |
| CNC(=O)c1cc2nc(Nc3cc(C4CCC4)n[nH]3)nc(N3CCOCC3)c2o1 [Compound 80, 2-((5-cyclobutyl-1H-pyrazol-3-yl)amino)-N-methyl-4-morpholinofuro[3,2-d]pyrimidine-6-carboxamide, hydrogen chloride] | 454 | 5520 | 5500 |  |  |
| CNC(=O)c1cc2nc(Nc3cc(C4CCCC4)n[nH]3)nc(N3CCOCC3)c2o1 [Compound 83, 2-((5-cyclopentyl-1H-pyrazol-3-yl)amino)-N-methyl-4-morpholinofuro[3,2-d]pyrimidine-6-carboxamide, hydrogen chloride] |  | 3720 | 4090 |  |  |
| CNC(=O)c1cc2nc(Nc3cc(CC4CCCC4)n[nH]3)nc(N3CCOCC3)c2o1 [Compound 84, 2-((5-(cyclopentylmethyl)-1H-pyrazol-3-yl)amino)-N-methyl-4-morpholinofuro[3,2-d]pyrimidine-6-carboxamide, hydrogen chloride] | 218 | 4530 | ≥ 20000 |  |  |
| CCc1cc(Nc2nc(N3CCOCC3)c3oc(C(=O)NC)cc3n2)[nH]n1 [Compound 87, 2-((5-ethyl-1H-pyrazol-3-yl)amino)-N-methyl-4-morpholinofuro[3,2-d]pyrimidine-6-carboxamide, hydrogen chloride] |  | 3480 | ≥ 20000 |  |  |

The next molecules have a lower IC50 [1] than those just listed; values first:

| IC50 (PI3Kδ) [nM] | IC50 (PI3Kα) [nM] | IC50 [1] [nM] | SMILES | EC50 [2] [nM] | EC50 [3] [nM] |
| --- | --- | --- | --- | --- | --- |
|  |  | 25 | Cc1cccc(-c2cnn(-c3nc(N4CCOCC4)c4oc(-c5ccncn5)cc4n3)c2)c1 [Compound 143, 4-morpholino-6-(pyrimidin-4-yl)-2-(4-(m-tolyl)-1H-pyrazol-1-yl)furo[3,2-d]pyrimidine] | 1000 | 48 |
|  |  | 12.1 | Cc1cccc(-c2cnn(-c3nc(N4CCOCC4)c4oc(-c5cccnc5)cc4n3)c2)c1 [Compound 102, 4-morpholino-6-(pyridin-3-yl)-2-(4-(m-tolyl)-1H-pyrazol-1-yl)furo[3,2-d]pyrimidine] | 1000 | 43 |
|  |  | 10.2 | Cc1cccc(-c2cnn(-c3nc(N4CCOCC4)c4oc(C(=O)NC5COC5)cc4n3)c2)c1 [Compound 106, 4-morpholino-N-(oxetan-3-yl)-2-(4-(m-tolyl)-1H-pyrazol-1-yl)furo[3,2-d]pyrimidine-6-carboxamide] | 1000 | 53.5 |
|  |  | 1.9 | Cc1cccc(-c2cnn(-c3nc(N4CCOCC4)c4oc(C(=O)NCC5COC5)cc4n3)c2)c1 [Compound 107, 4-morpholino-N-(oxetan-3-ylmethyl)-2-(4-(m-tolyl)-1H-pyrazol-1-yl)furo[3,2-d]pyrimidine-6-carboxamide] | 1000 | 59.5 |
|  |  | 1.2 | Cc1cccc(-c2cnn(-c3nc(N4CCOCC4)c4oc(C(=O)NC5CC5)cc4n3)c2)c1 [Compound 100, N-cyclopropyl-4-morpholino-2-(4-(m-tolyl)-1H-pyrazol-1-yl)furo[3,2-d]pyrimidine-6-carboxamide] | 300 | 18 |
